Measured values as given in doi:10.1101/2021.09.30.462664v1 (biorxiv, 2021).
Positions count from the first letter of the chain named.

Columns and labels:
Experiment in all cases: whole-cell patch clamp, V0.[…] shift, Hill fit
Format in all cases: cell-based
[1] = target: T1, KCNQ3 (homomer; KCNQ3T = KCNQ3-A315T) (Homo sapiens, UniProt O43525, A315T/S209A)
T1 sequence (O43525 1-872 S209A/A315T): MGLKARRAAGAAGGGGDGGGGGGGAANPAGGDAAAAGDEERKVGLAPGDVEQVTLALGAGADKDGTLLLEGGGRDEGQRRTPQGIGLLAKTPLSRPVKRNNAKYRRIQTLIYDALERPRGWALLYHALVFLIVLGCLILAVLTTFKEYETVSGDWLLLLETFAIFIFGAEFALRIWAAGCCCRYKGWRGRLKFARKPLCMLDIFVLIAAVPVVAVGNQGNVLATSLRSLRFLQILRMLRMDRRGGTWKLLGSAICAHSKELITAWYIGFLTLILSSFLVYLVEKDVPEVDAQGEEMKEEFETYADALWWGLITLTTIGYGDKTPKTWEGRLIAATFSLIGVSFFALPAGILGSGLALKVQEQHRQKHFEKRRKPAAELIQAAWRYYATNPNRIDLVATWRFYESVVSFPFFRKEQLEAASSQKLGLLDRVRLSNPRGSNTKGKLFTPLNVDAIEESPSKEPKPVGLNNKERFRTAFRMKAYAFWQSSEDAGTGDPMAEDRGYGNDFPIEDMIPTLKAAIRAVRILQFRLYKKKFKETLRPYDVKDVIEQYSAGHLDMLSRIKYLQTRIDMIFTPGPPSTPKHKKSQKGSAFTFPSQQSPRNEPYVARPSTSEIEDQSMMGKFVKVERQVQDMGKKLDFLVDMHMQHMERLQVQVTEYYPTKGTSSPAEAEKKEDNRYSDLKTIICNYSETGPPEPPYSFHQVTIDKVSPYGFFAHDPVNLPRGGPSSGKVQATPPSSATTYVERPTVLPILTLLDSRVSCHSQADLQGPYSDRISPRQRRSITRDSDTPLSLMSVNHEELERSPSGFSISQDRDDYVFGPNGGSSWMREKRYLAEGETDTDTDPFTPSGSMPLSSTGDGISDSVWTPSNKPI

[2] = target: KCNQ2/3 channel (KCNQ2/3 heteromers) (Homo sapiens, UniProt O43525+O43526)
Sequence of KCNQ2/3 channel (KCNQ2/3 heteromers) (O43525 whole entry): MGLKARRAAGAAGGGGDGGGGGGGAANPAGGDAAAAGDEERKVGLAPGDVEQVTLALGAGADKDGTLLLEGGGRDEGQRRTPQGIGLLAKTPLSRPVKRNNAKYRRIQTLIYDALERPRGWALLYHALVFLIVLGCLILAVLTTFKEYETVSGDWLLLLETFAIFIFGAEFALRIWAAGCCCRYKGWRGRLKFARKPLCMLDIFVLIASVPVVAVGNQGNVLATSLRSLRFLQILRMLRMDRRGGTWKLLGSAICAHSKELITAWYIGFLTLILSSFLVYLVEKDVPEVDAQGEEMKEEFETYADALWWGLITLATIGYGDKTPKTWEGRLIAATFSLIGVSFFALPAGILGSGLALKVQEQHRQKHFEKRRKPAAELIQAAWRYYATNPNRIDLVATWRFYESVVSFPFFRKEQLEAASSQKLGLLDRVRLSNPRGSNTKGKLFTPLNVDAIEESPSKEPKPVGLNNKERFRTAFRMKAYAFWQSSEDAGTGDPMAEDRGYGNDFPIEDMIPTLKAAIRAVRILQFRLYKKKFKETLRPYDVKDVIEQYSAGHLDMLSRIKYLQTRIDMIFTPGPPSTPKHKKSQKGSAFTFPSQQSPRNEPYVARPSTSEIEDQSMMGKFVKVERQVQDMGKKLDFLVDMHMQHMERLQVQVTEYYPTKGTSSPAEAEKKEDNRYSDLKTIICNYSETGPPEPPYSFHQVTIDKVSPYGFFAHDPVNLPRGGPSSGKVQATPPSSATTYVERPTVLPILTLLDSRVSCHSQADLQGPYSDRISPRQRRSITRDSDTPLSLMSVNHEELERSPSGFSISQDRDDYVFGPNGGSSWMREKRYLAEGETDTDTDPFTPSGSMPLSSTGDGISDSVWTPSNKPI
Sequence of KCNQ2/3 channel (KCNQ2/3 heteromers) (O43526 whole entry): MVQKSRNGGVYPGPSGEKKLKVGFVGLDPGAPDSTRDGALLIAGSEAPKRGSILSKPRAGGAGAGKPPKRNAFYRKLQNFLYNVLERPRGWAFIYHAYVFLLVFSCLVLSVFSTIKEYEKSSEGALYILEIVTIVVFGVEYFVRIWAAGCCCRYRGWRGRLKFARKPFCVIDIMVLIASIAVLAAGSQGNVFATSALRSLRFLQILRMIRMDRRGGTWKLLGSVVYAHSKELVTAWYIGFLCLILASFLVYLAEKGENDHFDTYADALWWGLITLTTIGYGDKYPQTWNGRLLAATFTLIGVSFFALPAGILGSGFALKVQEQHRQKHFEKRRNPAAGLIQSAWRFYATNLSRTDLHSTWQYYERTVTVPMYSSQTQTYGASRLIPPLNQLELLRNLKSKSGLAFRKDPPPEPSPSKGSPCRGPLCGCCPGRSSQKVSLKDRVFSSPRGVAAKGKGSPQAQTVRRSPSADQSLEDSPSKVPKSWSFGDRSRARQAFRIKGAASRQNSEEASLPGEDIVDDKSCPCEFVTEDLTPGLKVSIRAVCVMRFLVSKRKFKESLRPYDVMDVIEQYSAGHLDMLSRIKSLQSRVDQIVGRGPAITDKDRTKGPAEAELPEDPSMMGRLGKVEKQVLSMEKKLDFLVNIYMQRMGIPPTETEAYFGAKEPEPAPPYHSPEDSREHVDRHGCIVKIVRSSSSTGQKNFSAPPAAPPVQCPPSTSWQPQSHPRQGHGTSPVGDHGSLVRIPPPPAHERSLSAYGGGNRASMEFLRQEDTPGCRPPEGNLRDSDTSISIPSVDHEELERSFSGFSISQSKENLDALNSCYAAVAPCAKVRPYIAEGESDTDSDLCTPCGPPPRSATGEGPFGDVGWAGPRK

[3] = target: T2, KCNQ3 (homomer; KCNQ3T = KCNQ3-A315T) (Homo sapiens, UniProt O43525, A315T)
T2 sequence (O43525 1-872 A315T): T1 sequence (O43525 1-872 S209A/A315T) with A209S

[4] = target: T3, KCNQ3 (homomer; KCNQ3T = KCNQ3-A315T) (Homo sapiens, UniProt O43525, A315T/F167A)
T3 sequence (O43525 1-872 F167A/A315T): T1 sequence (O43525 1-872 S209A/A315T) with F167A, A209S

Row | Structure (SMILES) | EC50 [1] [µM] | EC50 [2] [µM] | EC50 [3] [µM] | EC50 [4] [µM]
1 | Oc1cc(Cl)ccc1Oc1ccc(Cl)cc1Cl [triclosan] | 46 | 32 | 38 | 42
2 | CCOC(=O)Nc1ccc(NCc2ccc(F)cc2)cc1N [retigabine] | – | 3.6 | – | –
